Patent US10442804B2, “Compounds for the treatment of hepatitis B virus infection” (Gilead Sciences, Inc., priority 2017, dated 2019)
Like-named read-outs stand apart in the source and are kept apart here.

Key:
[1] = system: HBV-infected NTCP-HepG2 cells, secreted HBsAg; assay: microbe, parasite or virus in culture; type: cell-based, hepatitis B virus (genotype D, AD38-derived); conditions: secreted HBsAg in supernatant after 5 days, geometric mean of minimum four determinations, read-out: NTCP HBsAg EC50
In short: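 NTCP-HepG2 cells were infected with genotype D HBV at 4000 genome equivalents/cell, then seeded 4 days post-infection with serially diluted compounds (1% DMSO) for 5 days. Supernatant HBsAg was measured by chemiluminescent MSD immunoassay. EC50 from four-parameter fit, geometric mean of ≥4 determinations.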

[2] = MT-4 cytotoxicity assay; type: cell-based, human; conditions: human, five days, Cell Titer Glo luminescence; read-out: MT-4 CC50
[3] = In vitro metabolic stability, hepatocyte stability (rat); type: in vitro ADME; conditions: Rat hepatocytes, read-out: hepatocyte stability T1/2 (converted)
Procedure: (§1) Biological Example 3: In Vitro Metabolic Stability
(§2) For hepatocyte stability incubations, cells were obtained from BioreclamationIVT (Baltimore, Md.), thawed according to the manufacturer's directions, and resuspended to a final concentration of 1×10^6 cells/mL in Krebs-Henseleit buffer prewarmed to 37° C. The total cell count and the proportion of viable cells were determined by Trypan Blue dye exclusion using a hemocytometer. The final concentration of test compounds and positive controls was 2 μM. Incubations were carried out in duplicate wells of a 24-well plate out with gentle shaking at 37° C. under a humid atmosphere of 95% air/5% CO2 (v/v). Aliquots (50 μL) were removed after 0, 1, 3, and 6 hours and added to 100 μL quenching solution. Samples were then processed and analyzed in a manner similar to the microsomal stability samples.
(§3) Quantification of test compounds and positive controls were performed using analyte/internal standard peak area ratios (PAR) measured on a Q-Exactive mass spectrometer (Thermo Scientific, San Jose, Calif.) coupled to an Aria Transcend LX-4 multiplex UHPLC system (Thermo Scientific, San Jose, Calif.). […] Half-lives of compounds in the incubations were calculated from extracted data using GMSU/QuickCalc (Gubbs, Inc.) and data are summarized in the following Table 2.

[4] = In vitro metabolic stability, hepatocyte stability (dog); type: in vitro ADME; conditions: Dog hepatocytes, read-out: hepatocyte stability T1/2 (converted)
Procedure: as §1, §2, §3

[5] = In vitro metabolic stability, hepatocyte stability (cynomolgus monkey); type: in vitro ADME; conditions: Cyno hepatocytes, read-out: hepatocyte stability T1/2 (converted)
Procedure: as §1, §2, §3

[6] = In vitro metabolic stability, hepatocyte stability (human); type: in vitro ADME; conditions: Human hepatocytes, read-out: hepatocyte stability T1/2 (converted)
Procedure: as §1, §2, §3

[7] = system: MT-4 cell line (HTLV-1 transformed, human T lymphoblastoid cells); assay: MT-4 cytotoxicity assay; type: cell-based; conditions: five days, Cell Titer Glo luminescence

| Compound | EC50 ([1]; Hepatitis B virus, 120 h) [nM] | CC50 at 5 days [2] [nM] | half-life at 2 μM [3] [h] | half-life at 2 μM [4] [h] | half-life at 2 μM [5] [h] | half-life at 2 μM [6] [h] | EC50 [1] [nM] | CC50 [7] [nM] |
| --- | --- | --- | --- | --- | --- | --- | --- | --- |
| COCCCOc1cc2c(cc1Cl)-c1cc(=O)c(C(=O)O)cn1[C@H]1[C@@H]2CCC1(C)C (single isomer, unassigned) [Example 33] | 1.8 | 7900 | 1.6 | 5.7 | 5.6 | 21.6 | – | – |
| COCCCOc1cc2c(cc1Cl)-c1cc(=O)c(C(=O)O)cn1N1[C@@H]2CCC1(C)C (single isomer, unassigned) [Example 5] | 1.7 | > 10000 | > 39.5 | > 39.5 | 20.8 | > 39.5 | – | – |
| COCCCOc1cc2c(cc1Cl)-c1cc(=O)c(C(=O)O)cn1[C@H]1[C@@H]2CCC1(C)C (racemic) [Example 32, cis-10-chloro-11-(3-methoxypropoxy)-3,3-dimethyl-7-oxo-1,2,3,3a,7,12b-hexahydrocyclopenta[c]pyrido[2,1-a]isoquinoline-6-carboxylic acid] | – | – | – | – | – | – | 120 | 6000 |
